Measured values taken from patent publication US20240026262A1, “METHODS AND DEVICES FOR EX-UTERO MOUSE EMBRYONIC DEVELOPMENT” (Yeda Research and Development Co. Ltd., priority 2021, published 2024).
Entries after “also recorded” stand apart in the source; their conditions may differ.

Columns and labels:
mouse embryos = test: Ex utero culture of mouse embryos from E6.5 in supplemented EUCM, proper embryo development per stage
Experimental: E5.5 and E6.5 embryos ex utero culture—Cultures starting with pre-gastrulation (E5.5) and early gastrulation (E6.5) embryos were effected in static culture conditions until the early somite stage. Embryos were dissected out of the uterus and individual embryos were transferred into each well of a 8-wells glass bottom/ibiTreat μ-plates (iBidi; 80827/80826) filled with 250 μl of EUCM. To optimize culturing conditions, different media, oxygen concentrations (5% or 21%), extracellular matrices (Matrigel), supplements (N2/B27), and gas pressures (hyperbaric 2.5 or 5 psi) were tested. Media was pre-heated for an hour in an incubator with 5% CO2 at 37° C. Pre-primitive streak stage embryos (distal and anterior visceral endoderm stage) were chosen for culture in the case of E5.5, and early-primitive streak stage embryos were selected for cultures beginning at E6.5. Only embryos with no evident damage and without Reichert's membrane were cultured. Half a volume of media was replaced every 24 hours. Embryos were transferred into the rotating culture at the 4-7 somite stage (three days for cultures started at E5.5 and two days for cultures started at E6.5) or at the late gastrulation stage using the same conditions described previously for E8.5, with the difference that embryos were maintained in a constant atmosphere of 21% oxygen and 5% CO2. Transfer of the embryos at earlier or later stages results in failure of further development. Dynamic oxygen conditions yielded slightly less efficiency for expanding E6.5-E11 than using constant 21% oxygen (FIGS. 10A-B). This difference could result from oxygen diffusion in static conditions being be less efficient than in roller conditions, and that might be why higher oxygen is needed to be delivered in protocols that include static conditions. To allow further culture of the embryos until the stage (E13.5), oxygen was increased to 95% from E10.5 onwards and at E11.5 the embryos were dissected out of the yolk sac and amnion carefully avoiding rupture of any major yolk sac blood vessels, but keeping the yolk sac and umbilical cord attached to the embryo. Morphological evaluation of mouse embryo development—Assessment of appropriate embryo development was performed based on previously established morphological features [Van Maele-Fabry, G., et al. Toxicol. Vitr. 4, 149-156 (1990); Van Maele-Fabry, G., et al. Int. J. Dev. Biol. 36, 161-167 (1992)]. Only embryos presenting all of the following features were considered as properly developed. Proper development at the morphological level from E5.5/E6.5 to E8.5 was assessed as follows: At E6.5, the embryos are constituted by three cell lineages: the cup-shaped pluripotent epiblast (Epi) and two extra-embryonic lineages, the extraembryonic ectoderm (ExE) and the visceral endoderm (VE). The cavities in the embryonic and extraembryonic compartments are unified to form the pro-amniotic cavity, radial symmetry is broken in the epiblast to initiate specification of the primitive streak. After 1 or 2 days of culture ex utero (depending on the time of culture initiation, E5.5 or E6.5), the embryos reach the neural plate stage equivalent to E7.5, with no allantoic bud or early bud. The amniotic folds fuse to form the amnion, and the chorion develops from the ExE and the extraembryonic mesoderm. These events generate three cavities in the embryo: amniotic, exocoelomic and ectoplacental cavities. A small allantois bud is present in some of the embryos, at the base of the primitive streak, and the anterior ectoderm begins to form the future neural groove. On the following day, cultured embryos present between 4 to 8 pairs of somites with the embryo curved dorsally, the yolk sac and yolk sac blood circulation has been established, the allantois started to fuse with the chorion, head folds are well-formed as well as the invaginating foregut and beating heart. […]

[1] = tested on: neural tube closure in mouse embryos; test: Teratogenic experiments in mouse embryos cultured ex utero since E7.5; conditions: 1 mM in culture media from E8.5 to E9.5, n=6
Experimental: E7.5 embryo dissection and ex utero culture—Mouse embryos were obtained from non-hormone primed pregnant mice sacrificed by cervical dislocation at E7.5. Subsequently, embryos were dissected out from the uterus in dissection medium pre-equilibrated at 37° C. for 1 hour, consisting of DMEM (GIBCO 11880; includes already 1 mg/mL D-glucose and pyruvate, without phenol red and without L-glutamine) supplemented with 10% Fetal Bovine Serum (Biological Industries; 040131A), sterilized by using a 0.22 μm filter (JetBiofil; FCA-206-250). The embryos were carefully dissected from the decidua and parietal yolk sac leaving the intact ectoplacental cone attached to the egg cylinder. Briefly, the decidua was isolated from the uterine tissue and the tip of the pear-shaped decidua was cut. The decidua was then opened into halves by introducing the forceps adjacent to the embryo in parallel to its long axis and subsequently opening the forceps. Afterwards the embryo was grasped from the decidua and the parietal yolk sac was peeled off the embryo using two forceps. Embryo dissection was performed on a microscope equipped with a Tokai Hit thermo plate at 37° C., within a maximum of 30 minutes to avoid affecting the embryo developmental potential. […] Developmental stage of the embryos was determined according to Downs & Davies^5. […]

With `CC(=O)C(=O)[O-].[Na+]` [sodium pyruvate] the “effect on forebrain growth and forebrain defects” value (mouse embryos; 1 mM sodium pyruvate added to EUCM) was “promotes forebrain growth and eliminates forebrain defects”, the “proper embryo development at E7.5” value (mouse embryos; EUCM with additional 4 mg/ml glucose and 1 mM sodium pyruvate since E6.5, stage E7.5) was 8/8 - 100% and the “proper embryo development at E8.5 (embryos/total)” value (mouse embryos; EUCM with additional 4 mg/ml glucose and 1 mM sodium pyruvate since E6.5, stage E8.5) was 7/7 (1 attached). The “proper embryo development at E9.5” value (mouse embryos; EUCM with additional 4 mg/ml glucose and 1 mM sodium pyruvate since E6.5, stage E9.5) was 6/7 - 85.7%, the “proper embryo development at E10.5” value (mouse embryos; EUCM with additional 4 mg/ml glucose and 1 mM sodium pyruvate since E6.5, stage E10.5) was 6/7 - 85.7% and the “proper embryo development at E11.5” value (mouse embryos; EUCM with additional 4 mg/ml glucose and 1 mM sodium pyruvate since E6.5, stage E11.5) was 4/7 - 57%. For the same molecule, the “proper embryo development at E12.5” value (mouse embryos; EUCM with additional 4 mg/ml glucose and 1 mM sodium pyruvate since E6.5, stage E12.5) was 4/7 - 57% and the “effect on culture efficiency” value (mouse embryos; additional 4 mg/ml glucose and 1 mM sodium pyruvate in EUCM since E6.5) was “helps to improve culture efficiency”.

`CCCC(CCC)C(=O)O` [valproic acid] was tested, and the “teratogenic effect on neural tube closure” value [1] was “neural tube closure defects; also recorded: teratogenic effects of valproic acid on neural tube closure could be recapitulated”.
